Molecules are shown by their SMILES. Entries after “also recorded” stand apart in the source; their conditions may differ.

Data set [1] concerns the target T1, AChE (Homo sapiens, UniProt P22303). The data set is described as follows: Enzyme kinetic study of AChE inhibition (Lineweaver-Burk, Ellman's method). Format: biochemical. Here is the method: As previously reported, the kinetic study of AChE was carried out at five different concentrations of compound 5l and acetylthiocholine substrate (0.1–1 mM) by Ellman's method.
For orientation: Ellman's reagent forms a yellow product with free thiols.

A further data set addresses BChE (Homo sapiens, UniProt P06276). The data set can be described thus: BChE inhibition, modified Ellman method. The data set is classed as biochemical. The procedure: (§1) Cholinesterase inhibitory activities of all analogs were evaluated spectrometrically using the modified Ellman method as previously reported[40],[41]. […] The absorbance of each well was measured at 415 nm using a microplate reader. IC50 values and inhibition values were calculated with the software GraphPad Prism as the mean of three independent experiments and are expressed as mean ± SEM.

The target of data set [2] is T1, AChE. The data set is described as follows: biochemical. The procedure: as §1
In data set [3] the test system is SH-SY5Y neuroblastoma cell line. The data set is described as follows: MTT toxicity assay on SH-SY5Y. Format: cell-based. The settings on record: 72 h exposure; tested concentrations up to 50 µM. The procedure: SH-SY5Y cells were maintained in Dulbecco's modified Eagle medium with Ham's F12 medium (DMEM/F12) containing 15% fetal bovine serum100 units/ml penicillin and 100 µg/ml streptomycin. Cells were seeded into flasks containing supplemented medium and maintained at 37 °C in a humidified atmosphere of 5% CO2 and 95% air. Cell viability, virtually the mitochondrial activity of living cells, was measured by quantitative colorimetric assay with MTT, as described previously. MTT reagent, at a final concentration of 0.5 mg/ml, was added to each well at the end of the incubation period, and the plate was placed in a humidified incubator for an additional two h periods. Metabolically active cells convert the yellow MTT tetrazolium compound to a purple formazan product. Then, the insoluble formazan was dissolved with dimethylsulfoxide; colorimetric determination of MTT reduction was measured at 540 nm. Control cells treated media were taken as 100% viability.
On the technique in general: Formazan colour is commonly taken as a measure of viable cells.

Chain of BChE (P06276 29-602): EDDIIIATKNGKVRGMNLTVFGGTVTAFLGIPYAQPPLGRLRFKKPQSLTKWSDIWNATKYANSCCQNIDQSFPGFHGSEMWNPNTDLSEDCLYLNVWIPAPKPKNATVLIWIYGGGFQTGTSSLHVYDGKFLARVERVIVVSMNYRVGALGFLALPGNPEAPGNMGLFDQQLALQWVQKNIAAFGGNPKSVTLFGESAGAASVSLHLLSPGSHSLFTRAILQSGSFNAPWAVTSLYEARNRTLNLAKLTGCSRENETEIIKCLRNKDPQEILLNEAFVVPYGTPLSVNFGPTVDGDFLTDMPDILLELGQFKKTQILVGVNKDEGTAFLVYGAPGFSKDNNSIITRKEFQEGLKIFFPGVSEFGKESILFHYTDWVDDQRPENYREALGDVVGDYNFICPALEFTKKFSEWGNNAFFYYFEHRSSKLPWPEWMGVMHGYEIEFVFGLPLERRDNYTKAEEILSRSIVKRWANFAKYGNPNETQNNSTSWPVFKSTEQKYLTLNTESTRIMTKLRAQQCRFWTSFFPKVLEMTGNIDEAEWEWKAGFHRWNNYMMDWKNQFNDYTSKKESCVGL
T1 sequence (P22303 32-614): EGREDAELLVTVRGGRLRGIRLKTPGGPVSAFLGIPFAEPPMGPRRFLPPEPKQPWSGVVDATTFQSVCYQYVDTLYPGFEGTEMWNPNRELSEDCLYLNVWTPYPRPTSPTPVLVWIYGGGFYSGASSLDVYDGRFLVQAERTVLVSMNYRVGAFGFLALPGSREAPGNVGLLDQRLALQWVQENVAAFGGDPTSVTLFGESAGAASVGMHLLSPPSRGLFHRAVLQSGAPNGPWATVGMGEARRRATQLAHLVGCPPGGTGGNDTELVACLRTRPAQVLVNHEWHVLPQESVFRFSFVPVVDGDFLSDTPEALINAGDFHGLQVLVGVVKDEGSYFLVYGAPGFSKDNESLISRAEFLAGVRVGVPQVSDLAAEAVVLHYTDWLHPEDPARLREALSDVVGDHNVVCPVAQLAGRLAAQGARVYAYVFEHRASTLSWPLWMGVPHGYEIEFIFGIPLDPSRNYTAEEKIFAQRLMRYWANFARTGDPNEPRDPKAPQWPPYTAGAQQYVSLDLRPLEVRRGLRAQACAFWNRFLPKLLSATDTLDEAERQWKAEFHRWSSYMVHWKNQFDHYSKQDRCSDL

Take `N#CC1=C(N)NNC(Nc2ccc(O)cc2)=C([N+](=O)[O-])C12C(=O)Nc1ccc([N+](=O)[O-])cc12` (stereo not shown) [Compound 5l, 3-amino-7-((4-hydroxyphenyl)amino)-5',6-dinitro-2'-oxo-1,2-dihydrospiro[[1,2]diazepine-5,3'-indoline]-4-carbonitrile]: at AChE [1] (Lineweaver-Burk plot), the “mode of AChE inhibition” value is on record as “mixed mode; also recorded: mix type inhibitor; also recorded: mix-type inhibition”. Besides, the Ki on AChE [1] (five inhibitor concentrations (1, 4, 8, 12, 24 µM), acetylthiocholine 0.1-1 mM, read-out: inhibition constant Ki against AChE) is 44 nM. For the same compound, the “inhibition against BChE (in words)” value at BChE is “no significant inhibition; also recorded: inactive”. In addition, the inhibition at 50 µM came to 5.71 ± 2.82% on BChE (read-out: BChE % inhibition at 50 µM) and 87.4 ± 5.93% at AChE [2] (read-out: AChE % inhibition at 50 µM). The compound further had a half-inhibitory concentration (IC50) against AChE [2] of 3980 ± 1070 nM. For the same compound, the “toxicity against SH-SY5Y (MTT cell viability)” value in data set [3] is recorded as “no toxicity; also recorded: did not show neurotoxicity”.

By Ki is commonly meant a dissociation constant, usually derived from enzyme kinetics or from competition with a known ligand. The inhibition is the change of the read-out against control, counted positive when it falls. The term IC50 denotes the concentration that inhibits the measured activity by half. A high value points to a need for much substance.

These data come from PMC10366214, “The anti-Alzheimer potential of novel spiroindolin-1,2-diazepine derivatives as targeted cholinesterase inhibitors with modified substituents” (Scientific Reports, 2023).
